Experimental data published in patent publication US9242933B2 (AbbVie Deutschland GmbH & Co. KG, priority 2007, dated 2016).

Molecular target: T1, human mGlu2 receptor (Homo sapiens, UniProt Q14416)
T1 construct: expressed in transfected cells; host or cells: HEK293
Experiment: FLIPR intracellular Ca2+ assay, potentiation of glutamate response in HEK293 clone expressing mGlu2 receptor, rGLAST and Galpha16
Format: cell-based
Conditions: 1 μM glutamate added ten minutes after test compound, HEK293 cells with human mGlu2, rGLAST, Galpha16, read-out: EC50 values of potentiation effect to glutamate
Outline: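 HEK293 cells stably expressing human mGlu2, rat GLAST and Gα16 were loaded with 2 µM Fluo-4 AM and intracellular Ca2+ read by FLIPR. Compound added alone (agonism), then with submaximal glutamate (e.g. 1 µM; potentiation). Background-subtracted peaks normalized to 100 µM glutamate response; EC50 from four-parameter fit.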

T1 sequence (Q14416 19-872): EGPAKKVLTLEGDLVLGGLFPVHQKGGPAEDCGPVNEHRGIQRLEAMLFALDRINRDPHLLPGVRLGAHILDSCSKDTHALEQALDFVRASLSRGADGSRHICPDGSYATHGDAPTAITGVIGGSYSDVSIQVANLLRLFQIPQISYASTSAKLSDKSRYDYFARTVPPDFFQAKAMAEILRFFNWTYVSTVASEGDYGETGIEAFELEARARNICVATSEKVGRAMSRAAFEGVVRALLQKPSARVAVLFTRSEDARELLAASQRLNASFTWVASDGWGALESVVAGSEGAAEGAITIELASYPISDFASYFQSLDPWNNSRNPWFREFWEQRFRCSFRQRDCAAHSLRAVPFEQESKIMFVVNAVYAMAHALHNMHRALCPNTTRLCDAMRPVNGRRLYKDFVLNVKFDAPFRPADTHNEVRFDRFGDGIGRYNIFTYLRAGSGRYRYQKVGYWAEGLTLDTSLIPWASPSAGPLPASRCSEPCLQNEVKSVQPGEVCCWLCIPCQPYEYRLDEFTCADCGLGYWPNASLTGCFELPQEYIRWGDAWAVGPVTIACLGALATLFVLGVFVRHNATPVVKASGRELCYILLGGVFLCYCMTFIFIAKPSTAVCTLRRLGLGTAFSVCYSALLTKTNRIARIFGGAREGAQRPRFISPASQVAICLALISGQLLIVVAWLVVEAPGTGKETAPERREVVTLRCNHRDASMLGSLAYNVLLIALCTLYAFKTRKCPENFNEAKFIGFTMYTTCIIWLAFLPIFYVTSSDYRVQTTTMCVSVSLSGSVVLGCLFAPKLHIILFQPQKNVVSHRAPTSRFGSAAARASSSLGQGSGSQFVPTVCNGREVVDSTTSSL

Row | Compound | EC50 [µM]
1 | CCCC(=O)c1ccc(NCc2cnc(-c3cccc(OC)c3)s2)cc1 [Example 243, 1-(4-{[2-(3-Methoxy-phenyl)-thiazol-5-ylmethyl]-amino}-phenyl)-butan-1-one] | 1 to 10
2 | CCCC(=O)c1ccc(NCc2ccc(-c3ccc(S(N)(=O)=O)cc3)o2)cc1 [Example 35, 4-{5-[(4-Butyrylphenylamino)methyl]furan-2-yl}benzenesulfonamide] | 1 to 10
3 | CCCN1Cc2cc(OCc3c[nH]nc3-c3cccc(Cl)c3)ccc2C1=O [Example 535, 5-[3-(3-Chloro-phenyl)-1H-pyrazol-4-ylmethoxy]-2-propyl-2,3-dihydro-isoindol-1-one] | < 1
4 | CCCN1Cc2cc(OCc3c[nH]nc3-c3cccc(F)c3)ccc2C1=O [Example 536, 5-[3-(3-Fluorophenyl)-1H-pyrazol-4-ylmethoxy]-2-propyl-2,3-dihydro-isoindol-1-one] | < 1
5 | CCCC(=O)c1ccc(NCc2cn(-c3ccccc3)nc2-c2ccncc2)cc1 [Example 214, 1-{4-[(1-Phenyl-3-pyridin-4-yl-1H-pyrazol-4-ylmethyl)-amino]-phenyl}-butan-1-one] | 1 to 10
6 | CCCC(=O)c1ccc(NCc2ccc(CC)s2)cc1 [Example 9, 1-{4-[(5-Ethylthiophen-2-ylmethyl)amino]phenyl}butan-1-one] | 1 to 10
7 | CCCC(=O)c1ccc(NCc2n[nH]cc2-c2ccc(OC)cc2)cc1 [Example 513, 1-(4-{[4-(4-Methoxy-phenyl)-1H-pyrazol-3-ylmethyl]-amino}-phenyl)-butan-1-one] | < 1
8 | CN1Cc2cc(OCc3c[nH]nc3-c3ccc(C(F)(F)F)cc3)ccc2C1=O [Example 573, 2-Methyl-5-[3-(4-trifluoromethyl-phenyl)-1H-pyrazol-4-ylmethoxy]-2,3-dihydro-isoindol-1-one] | < 1
9 | CCCC(=O)c1ccc(OCc2c[nH]nc2-c2cccc(F)c2)cc1 [Example 497, 1-{4-[3-(3-Fluorophenyl)-1H-pyrazol-4-ylmethoxy]-phenyl}-butan-1-one] | < 1
10 | CCCC(=O)c1ccc(NCc2cnc(Oc3ccc(OC)cc3)s2)cc1 [Example 260, 1-(4-{[2-(4-Methoxy-phenoxy)-thiazol-5-ylmethyl]-amino}-phenyl)-butan-1-one] | 1 to 10
11 | CCCN1Cc2cc(NCc3c[nH]nc3-c3ccccc3)ccc2C1=O [Example 581, 5-[(3-Phenyl-1H-pyrazol-4-ylmethyl)-amino]-2-propyl-2,3-dihydro-isoindol-1-one] | < 1
12 | CCCC(=O)c1ccc(OCCCCOc2cccnc2)cc1 [Example 423, 1-{4-[4-(Pyridin-3-yloxy)-butoxy]-phenyl}-butan-1-one] | 1 to 10
13 | CCCCCC(=O)c1ccc(OCc2c[nH]nc2-c2ccc(C(F)(F)F)cc2)cc1 [Example 491, 1-{4-[3-(4-Trifluoromethyl-phenyl)-1H-pyrazol-4-ylmethoxy]-phenyl}-hexan-1-one] | < 1
14 | CN(C)S(=O)(=O)c1cccc(NCc2c[nH]nc2-c2ccc(Cl)cc2)c1 [Example 430, 3-{[3-(4-Chloro-phenyl)-1H-pyrazol-4-ylmethyl]-amino}-N,N-dimethyl-benzenesulfonamide] | 1 to 10
15 | CCCC(=O)c1ccc(NCc2c[nH]nc2-c2ccc(OC)cc2)cc1 [Example 209, 1-(4-{[3-(4-Methoxy-phenyl)-1H-pyrazol-4-ylmethyl]-amino}-phenyl)-butan-1-one] | < 1
16 | O=C1c2ccc(OCc3c[nH]nc3-c3ccccc3)cc2CN1CC(F)F [Example 567, 2-(2,2-Difluoro-ethyl)-5-(3-phenyl-1H-pyrazol-4-ylmethoxy)-2,3-dihydro-isoindol-1-one] | < 1
17 | CCCC(=O)c1ccc(OCc2n[nH]cc2-c2ccc(CC)cc2)cc1 [Example 521, 1-{4-[4-(4-Ethyl-phenyl)-1H-pyrazol-3-ylmethoxy]-phenyl}-butan-1-one] | < 1
18 | CCCC(=O)c1cccc(N(Cc2cccnc2)S(=O)(=O)CC(F)(F)F)c1 [Example 390, 2,2,2-Trifluoro-ethanesulfonic acid (3-butyryl-phenyl)-pyridin-3-ylmethyl-amide] | < 1
19 | CCCC(=O)c1ccc(NCc2nc3ccccc3n2C)cc1 [Example 226, 1-{4-[(1-Methyl-1H-benzoimidazol-2-ylmethyl)-amino]-phenyl}-butan-1-one] | 1 to 10
20 | CCCC(=O)c1ccc(NCc2c[nH]nc2C)cc1 [Example 475, 1-{4-[(3-Methyl-1H-pyrazol-4-ylmethyl)-amino]-phenyl}-butan-1-one] | 1 to 10
21 | O=C1c2ccc(OCc3c[nH]nc3-c3ccc(F)cc3)cc2CN1CCC(F)(F)F [Example 540, 5-[3-(4-Fluorophenyl)-1H-pyrazol-4-ylmethoxy]-2-(3,3,3-trifluoro-propyl)-2,3-dihydro-isoindol-1-one] | < 1

Row | Compound | EC50 [µM]
22 | CCCC(=O)c1ccc(NCc2cnn(CC)c2C)cc1 [Example 55, 1-{4-[(1-Ethyl-5-methyl-1H-pyrazol-4-ylmethyl)amino]phenyl}butan-1-one] | 1 to 10
23 | CCC(C)Oc1cccc(NCc2c[nH]nc2-c2ccc(C(F)(F)F)cc2)c1 (stereo not drawn) [Example 378, (3-sec-Butoxy-phenyl)-[3-(4-trifluoromethyl-phenyl)-1H-pyrazol-4-ylmethyl]-amine] | 1 to 10
24 | CCCC(=O)c1cccc(NCc2cccnc2)c1 [Example 386, 1-{3-[(Pyridin-3-ylmethyl)-amino]-phenyl}-butan-1-one] | 1 to 10
25 | CCCC(=O)c1ccc(NCc2n[nH]nc2-c2ccccc2)cc1 [Example 519] | 1 to 10
26 | CCCCN1Cc2cc(OCc3c[nH]nc3-c3ccc(Cl)cc3)ccc2C1=O [Example 546, 2-Butyl-5-[3-(4-chloro-phenyl)-1H-pyrazol-4-ylmethoxy]-2,3-dihydro-isoindol-1-one] | < 1
27 | CN1CCC(Oc2ccc(NCc3c[nH]nc3C(C)(C)C)cc2)CC1 [Example 284, (3-tert-Butyl-1H-pyrazol-4-ylmethyl)-[4-(1-methyl-piperidin-4-yloxy)-phenyl]-amine] | 1 to 10
28 | Cc1ccc(NCc2c[nH]nc2-c2ccc(C(F)(F)F)cc2)nc1C [Example 363, (5,6-Dimethyl-pyridin-2-yl)-[3-(4-trifluoromethyl-phenyl)-1H-pyrazol-4-ylmethyl]-amine] | 1 to 10
29 | CCCCN1Cc2cc(OCc3c[nH]nc3-c3cccc(C(F)(F)F)c3)ccc2C1=O [Example 545, 2-Butyl-5-[3-(3-trifluoromethyl-phenyl)-1H-pyrazol-4-ylmethoxy]-2,3-dihydro-isoindol-1-one] | < 1
30 | CCCC(=O)c1ccc(NCc2c(CSc3ccccc3)nn(C)c2Cl)cc1 [Example 52, 1-(4-{[5-Chloro-1-methyl-3-(phenylthiomethyl)-1H-pyrazol-4-ylmethyl]amino}phenyl)butan-1-one] | 1 to 10
31 | CCCC(C)Oc1cccc(N(Cc2c[nH]nc2-c2ccc(C(F)(F)F)cc2)S(=O)(=O)CC(F)(F)F)c1 (stereo not drawn) [Example 455, 2,2,2-Trifluoro-ethanesulfonic acid [3-(1-methyl-butoxy)-phenyl]-[3-(4-trifluoromethyl-phenyl)-1H-pyrazol-4-ylmethyl]-amide] | 1 to 10
32 | O=C1c2ccc(OCc3c[nH]nc3-c3ccc(C(F)(F)F)cc3)cc2CN1C1CCCC1 [Example 588, 2-Cyclopentyl-5-[3-(4-trifluoromethyl-phenyl)-1H-pyrazol-4-ylmethoxy]-2,3-dihydro-isoindol-1-one] | < 1
33 | O=C1c2ccc(OCc3c[nH]nc3-c3ccc(C(F)(F)F)cc3)cc2CN1CCC(F)(F)F [Example 542, 5-[3-(4-Trifluoromethyl-phenyl)-1H-pyrazol-4-ylmethoxy]-2-(3,3,3-trifluoro-propyl)-2,3-dihydro-isoindol-1-one] | < 1
34 | CCCC(=O)c1cccc(N(C)Cc2c[nH]nc2-c2ccc(C(F)(F)F)cc2)c1 [Example 392, 1-(3-{Methyl-[3-(4-trifluoromethyl-phenyl)-1H-pyrazol-4-ylmethyl]-amino}-phenyl)-butan-1-one] | 1 to 10
35 | CCCN1Cc2cc(NCc3c[nH]nc3-c3ccc(F)cc3)ccc2C1=O [Example 579, 5-{[3-(4-Fluorophenyl)-1H-pyrazol-4-ylmethyl]-amino}-2-propyl-2,3-dihydro-isoindol-1-one] | < 1
36 | CCCC(=O)c1cccc(NCc2c[nH]nc2-c2ccc(C(F)(F)F)cc2)c1 [Example 503, 1-(3-{[3-(4-Trifluoromethyl-phenyl)-1H-pyrazol-4-ylmethyl]-amino}-phenyl)-butan-1-one] | 1 to 10
37 | CCCC(=O)c1ccc(NCc2c[nH]nc2-c2cc(F)cc(F)c2)cc1 [Example 213, 1-(4-{[3-(3,5-Difluorophenyl)-1H-pyrazol-4-ylmethyl]-amino}-phenyl)-butan-1-one] | < 1
38 | CS(=O)(=O)c1ccc(NCc2c[nH]nc2-c2ccc(C(F)(F)F)cc2)cc1 [Example 399, (4-Methanesulfonyl-phenyl)-[3-(4-trifluoromethyl-phenyl)-1H-pyrazol-4-ylmethyl]-amine] | 1 to 10
39 | CCCC(=O)c1ccc(NCc2ccco2)cc1 [Example 13, 1-{4-[(Furan-2-ylmethyl)amino]phenyl}butan-1-one] | 1 to 10
40 | O=C1c2ccc(OCc3c[nH]nc3-c3ccc(C(F)(F)F)cc3)cc2CN1CC1CCCCC1 [Example 586, 2-Cyclohexylmethyl-5-[3-(4-trifluoromethyl-phenyl)-1H-pyrazol-4-ylmethoxy]-2,3-dihydro-isoindol-1-one] | < 1
41 | CCCN1Cc2cc(NCc3c[nH]nc3-c3cccc(F)c3)ccc2C1=O [Example 580, 5-{[3-(3-Fluorophenyl)-1H-pyrazol-4-ylmethyl]-amino}-2-propyl-2,3-dihydro-isoindol-1-one] | < 1
42 | CC(=O)c1ccc2c(c1)CCN2Cc1c[nH]nc1-c1ccc(C(F)(F)F)cc1 [Example 507, 1-{1-[3-(4-Trifluoromethyl-phenyl)-1H-pyrazol-4-ylmethyl]2,3-dihydro1H-indol-5-yl}-ethanone] | 1 to 10
